Data set [1] concerns mice. Kind of data set: Cytokine induction (IL-6, IP-10) in mice after intravenous administration. The class given is in vivo. Set-up: IL-6 / IP-10: unit not given here. The note with it: 0.5 mpk, 6 hours. The text has this:
The introduction of foreign material into a mammalian body induces an innate immune response that promotes cytokine production. Such immune responses to, for example, nanoparticle compositions including therapeutic and/or prophylactics, are undesirable. The induction of certain cytokines is thus measured to evaluate the […] of nanoparticle compositions. The concentrations of various cytokines in mice upon intravenous administration of nanoparticle compositions presented in Table 1A at a dosage of 0.5 mpk was measured at 6 hours. The standard MC3 formulation and a PBS control were also tested. As is evident in Table 7, IL-6 induction was highest for compositions including Compounds 1, 3, 9, 19, and 26, while IP-10 induction was highest for compositions including Compounds 3, 4, 7, 20, and 26. IL-6 induction was lowest for compositions including Compounds 4, 11, 12, and 28. IP-10 induction was lowest for compositions including Compounds 10, 11, 12, 13, 15, 17, and 18.
The expression of hEPO and cytokine induction in mice intravenously administered a nanoparticle composition at a dose of 0.5 mpk were measured at 3, 6, and 24 hours. […] The expression of hEPO in mice intramuscularly administered a nanoparticle composition from Table 1B at a dose of 0.01 mpk were measured at 3, 6, and 24 hours. […] (see also FIG. 9.)

The subject of data set [2] is mice. In words: Luc expression (total flux) after intramuscular administration. It is filed as in vivo. The note with it: 6 hours after intramuscular administration, Luc mRNA and H10 mRNA. The method, then: The numbers 1-7 in this figure correspond to MC3, Compounds 168-170, and 173-175 respectively.
In order to monitor how effectively various nanoparticle compositions deliver therapeutic and/or prophylactics to targeted cells, different nanoparticle compositions including a particular therapeutic and/or prophylactic (for example, a modified or naturally occurring RNA such as an mRNA) are prepared and administered to rodent populations. Mice are intravenously, intramuscularly, intraarterially, or intratumorally administered a single dose including a nanoparticle composition with a formulation such as those provided in Example 3. In some instances, mice may be made to inhale doses. Dose sizes may range from 0.001 mg/kg to 10 mg/kg, where 10 mg/kg describes a dose including 10 mg of a therapeutic and/or prophylactic in a nanoparticle composition for each 1 kg of body mass of the mouse. A control composition including PBS may also be employed.
The total flux (measured by area under the curve, AUC) induced by administration of a formulation including a given lipid relative to that induced by administration of a formulation including MC3 was also measured for several lipids.
Sample formulations including both modified luciferase (Luc) mRNA and H10 mRNA were prepared and administered intramuscularly and the resulting expression and immunogenicity were evaluated simultaneously. Formulations including compounds according to Formula (I), (IA), (II), (IIa), (IIb), (IIc), (IId) or (IIe) were prepared and administered at doses of 0.001 and 0.01 mpk (e.g., doses of 0.0005 mpk of a formulation including Luc mRNA and a formulation including H10 mRNA or doses of 0.005 mpk of a formulation including Luc mRNA and a formulation including H10 mRNA).
Sample formulations including modified luciferase (Luc) mRNA prepared and administered intramuscularly and the resulting expression and immunogenicity were evaluated simultaneously. Formulations including compounds according to Formula (I), (IA), (II), (IIa), (IIb), (IIc), (IId) or (IIe) were prepared and administered at dose of […] 0.01 mpk.
The fluxes measured upon intravenous and intramuscular administration are compared in Table 6. Fluxes are presented as fold increase over that measured for MC3 formulations.

Compound `CCCCCCCCCCCCCCCCCCN(CCO)CCCCCCCC(=O)OC(CCCCCCCC)CCCCCCCC` [Compound 1, Heptadecan-9-yl 8-((2-hydroxyethyl)(octadecyl)amino)octanoate] came in with an IP-10 in data set [1] of 687.14.

In the case of `CCCCCCCCCCCCCCN(CCO)CCCCCCCC(=O)OC(CCCCCCCC)CCCCCCCC` [Compound 2, Heptadecan-9-yl 8-((2-hydroxyethyl)(tetradecyl)amino)octanoate], in data set [1], the IL-6 is given as 70.95 and the IP-10 amounted to 468.86. Moreover, in data set [2], the “Total flux (p/s) 0.001 mpk Dose” value is given as 3.55E+06 p/s and the “Total flux (p/s) 0.01 mpk Dose” value is 6.16E+07 p/s.

In data set [1], `CCCCCCCCC(CCCCCCCC)OC(=O)CCCCCCCN(CCO)CCCCCC` [Compound 5, Heptadecan-9-yl 8-(hexyl(2-hydroxyethyl)amino)octanoate] displayed an IL-6 of 94.07 and an IP-10 of 487.16. Also, in data set [2], the “Total flux (p/s) 0.001 mpk Dose” value is 9.84E+05 p/s and the “Total flux (p/s) 0.01 mpk Dose” value was found to be 3.55E+06 p/s.

For `CCCCCCCCCN(CCCO)CCCCCCCC(=O)OC(CCCCCCCC)CCCCCCCC` [Compound 7, Heptadecan-9-yl 8-((3-hydroxypropyl)(nonyl)amino)octanoate], the IL-6 in data set [1] is on record as 116.35. In data set [2], the “Total flux (p/s) 0.001 mpk Dose” value was determined as 3.65E+06 p/s and the “Total flux (p/s) 0.01 mpk Dose” value was 7.48E+07 p/s.

Take `CCCCCCCCCN(CCCCCCCC(=O)OC(CCCCCCCC)CCCCCCCC)CCCn1ccnc1` [Compound 8, Heptadecan-9-yl 8-((3-(1H-imidazol-1-yl)propyl)(nonyl)amino)octanoate]: in data set [2], the “Total flux (p/s) 0.001 mpk Dose” value was 7.81E+05 p/s and the “Total flux (p/s) 0.01 mpk Dose” value was 3.32E+06 p/s.

Compound `CCCCCCCCCOC(=O)CCCCCCCN(CCCCCCCC(=O)OC(CCCCCCCC)CCCCCCCC)CCOC(C)=O` [Compound 9, Heptadecan-9-yl 8-((2-acetoxyethyl)(8-(nonyloxy)-8-oxooctyl)amino) octanoate] returned an IP-10 in data set [1] of 366.53.

Consider `CCCCCCCCCOC(=O)CCCCCCCN(CCCCCCCC(=O)OC(CCCCCCCC)CCCCCCCC)CC(C)O` (centres unmarked) [Compound 10, Heptadecan-9-yl 8-((2-hydroxypropyl)(8-(nonyloxy)-8-oxooctyl)amino) octanoate], for which the IL-6 in data set [1] was 88.81.

`CCCCCCCCCOC(=O)CCCCCCCN(CCCCCCCC(=O)OC(CCCCCCCC)CCCCCCCC)C[C@H](C)O` [Compound 12, Heptadecan-9-yl (S)-8-((2-hydroxypropyl)(8-(nonyloxy)-8-oxooctyl)amino)octanoate]: in data set [2], the “Total flux (p/s) 0.001 mpk Dose” value turned out to be 8.02E+04 p/s and the “Total flux (p/s) 0.01 mpk Dose” value came to 8.90E+05 p/s.

Compound `CCCCCCCCCOC(=O)CCCCCCCN(CCCCCCCC(=O)OC(CCCCCCCC)CCCCCCCC)CC(O)CC` (centres unmarked) [Compound 13, Heptadecan-9-yl 8-((2-hydroxybutyl)(8-(nonyloxy)-8-oxooctyl)amino) octanoate] registered an IL-6 in data set [1] of 29.07.

As for `CCCCCCCCCOC(=O)CCCCCCCN(CCCCCCCC(=O)OC(CCCCCCCC)CCCCCCCC)CCN(C)C` [Compound 14, Heptadecan-9-yl 8-((2-(dimethylamino)ethyl)(8-(nonyloxy)-8-oxooctyl)amino)octanoate], in data set [1], the IL-6 is listed as 75.29 and the IP-10 is 621.49.

Compound `CCCCCCCCCOC(=O)CCCCCCCN(CCCCCCCC(=O)OC(CCCCCCCC)CCCCCCCC)CCOC` [Compound 15, Heptadecan-9-yl 8-((2-methoxyethyl)(8-(nonyloxy)-8-oxooctyl)amino)octanoate] came in with an IL-6 in data set [1] of 64.65.

As to `CCCCCCCCCOC(=O)CCCCCCCN(CCCCCCCC(=O)OC(CCCCCCCC)CCCCCCCC)CCCOC` [Compound 16, Heptadecan-9-yl 8-((3-methoxypropyl)(8-(nonyloxy)-8-oxooctyl)amino) octanoate], in data set [1], the IL-6 came out at 32.01 and the IP-10 worked out at 206.75.

In turn, `CCCCCCCCCOC(=O)CCCCCCCN(CCCCCCCC(=O)OC(CCCCCCCC)CCCCCCCC)CCOCCN(C)C` [Compound 17, Heptadecan-9-yl 8-((2-(2-(dimethylamino)ethoxy)ethyl) (8-(nonyloxy)-8-oxooctyl)amino)octanoate] registered an IL-6 in data set [1] of 138.43.

In data set [1], `CCCCCCCCCOC(=O)CCCCCCCN(CCCO)CCCCCCCC(=O)OC(CCCCCCCC)CCCCCCCC` [Compound 19, Heptadecan-9-yl 8-((3-hydroxypropyl)(8-(nonyloxy)-8-oxooctyl)amino) octanoate] had an IP-10 of 1468.94. Besides, in data set [2], the “Total flux (p/s) 0.001 mpk Dose” value stood at 3.28E+06 p/s and the “Total flux (p/s) 0.01 mpk Dose” value was found to be 2.96E+07 p/s.

In data set [1], `CCCCCCCCCOC(=O)CCCCCCCN(CCCCCCCC(=O)OC(CCCCCCCC)CCCCCCCC)C1CCCCC1O` (centres unmarked) [Compound 22, Heptadecan-9-yl 8-((2-hydroxycyclohexyl)(8-(nonyloxy)-8-oxooctyl)amino)octanoate] showed an IL-6 of 90.54 and an IP-10 of 976.50.

In data set [1], `CCCCCCCCCOC(=O)CCCCCCCN(CCO)CCCCCCCCCC(=O)OC(CCCCCCCC)CCCCCCCC` [Compound 23, Heptadecan-9-yl 10-((2-hydroxyethyl)(8-(nonyloxy)-8-oxooctyl)amino) decanoate] had an IL-6 of 94.00 and an IP-10 of 1015.95. Further, in data set [2], the “Total flux (p/s) 0.001 mpk Dose” value amounted to 8.27E+06 p/s and the “Total flux (p/s) 0.01 mpk Dose” value was found to be 2.20E+06 p/s.

In the case of `CCCCCCCCCOC(=O)CCCCCCCN(CCO)CCCCCC(=O)OC(CCCCCCCC)CCCCCCCC` [Compound 27, Nonyl 8-((6-(heptadecan-9-yloxy)-6-oxohexyl)(2-hydroxyethyl)amino) octanoate], in data set [1], the IL-6 stood at 161.07 and the IP-10 amounted to 345.56. In data set [2], the “Total flux (p/s) 0.001 mpk Dose” value is recorded as 2.55E+06 p/s and the “Total flux (p/s) 0.01 mpk Dose” value worked out at 3.17E+07 p/s.

For `CCCCCCCCCOC(=O)CCCCCCCN(CCO)CCCCCCCC(=O)OC(CCCCCC)CCCCCCCC` (centres unmarked) [Compound 32, nonyl 8-((2-hydroxyethyl)(8-oxo-8-(pentadecan-7-yloxy)octyl)amino) octanoate], in data set [2], the “Total flux (p/s) 0.001 mpk Dose” value turned out to be 7.37E+05 p/s and the “Total flux (p/s) 0.01 mpk Dose” value is 1.03E+07 p/s.

Take `CCCCCCCCCOC(=O)CCCCCCCN(CCO)CCCCCCCC(=O)OC(CC)CCCCCCCC` (centres unmarked) [Compound 35, nonyl 8-((2-hydroxyethyl)(8-oxo-8-(undecan-3-yloxy)octyl)amino) octanoate]: in data set [2], the “Total flux (p/s) 0.001 mpk Dose” value stood at 2.45E+06 p/s and the “Total flux (p/s) 0.01 mpk Dose” value is reported as 8.12E+06 p/s.

On to `CCCCCCCCCOC(=O)CCCCCCCN(CCO)CCCCCCCC(=O)OC(CCCC)CCCC` [Compound 57, nonan-5-yl 8-((2-hydroxyethyl)(8-(nonyloxy)-8-oxooctyl)amino) octanoate], for which, in data set [2], the “Total flux (p/s) 0.001 mpk Dose” value is 1.16E+05 p/s and the “Total flux (p/s) 0.01 mpk Dose” value is given as 2.23E+05 p/s.

In data set [1], `CCCCC/C=C\C/C=C\CCCCCCCCN(CCO)CCCCCCCC(=O)OCCCCCCCCC` [Compound 136, Nonyl 8-((2-hydroxyethyl)((9Z,12Z)-octadeca-9,12-dien-1-yl)amino)octanoate] gave an IL-6 of 28.69 and an IP-10 of 887.91.

On to `CCCCCC/C=C\COC(=O)CCCCCCCN(CCO)CCCCCCCC(=O)OC/C=C\CCCCCC` [Compound 139, Di((Z)-non-2-en-1-yl) 8,8′-((2-hydroxyethyl)azanediyl)dioctanoate], for which, in data set [1], the IL-6 is reported as 23.57 and the IP-10 is 153.36.

Regarding `CCCCCCCCCCCOC(=O)CCCCCN(CCO)CCCCCC(=O)OCCCCCCCCCCC` [Compound 141, Diundecyl 6,6′-((2-hydroxyethyl)azanediyl)dihexanoate], in data set [1], the IL-6 worked out at 327.15 and the IP-10 is on record as 1072.04.

The record behind these values is patent publication US12404232B2, “Compounds and compositions for intracellular delivery of therapeutic agents” (ModernaTX, Inc., priority 2015, dated 2025).
